Measured values as given in ChEMBL document CHEMBL5154747, “Discovery of new carbonic anhydrase IX inhibitors as anticancer agents by toning the hydrophobic and hydrophilic rims of the active site to encounter the dual-tail approach” (Eur J Med Chem, 2022).

Assays:
Format in all cases: functional
UACC-257 = experiment: Anticancer activity against human UACC-257 cells assessed as cell growth inhibition incubated for 48 hrs by SRB assay
CCRF-CEM = experiment: Anticancer activity against human CCRF-CEM cells assessed as cell growth inhibition incubated for 48 hrs by SRB assay
NCI-H226 = experiment: Anticancer activity against human NCI-H226 cells assessed as cell growth inhibition incubated for 48 hrs by SRB assay
TK-10 = experiment: Anticancer activity against human TK-10 cells assessed as cell growth inhibition incubated for 48 hrs by SRB assay
NCI-H322M = experiment: Anticancer activity against human NCI-H322M cells assessed as cell growth inhibition incubated for 48 hrs by SRB assay
786-0 = experiment: Anticancer activity against human 786-0 cells assessed as cell growth inhibition incubated for 48 hrs by SRB assay
HOP-92 = experiment: Anticancer activity against human HOP-92 cells assessed as cell growth inhibition incubated for 48 hrs by SRB assay
MCF7 = experiment: Anticancer activity against human MCF7 cells assessed as cell growth inhibition incubated for 48 hrs by SRB assay
SNB-75 = experiment: Anticancer activity against human SNB-75 cells assessed as cell growth inhibition incubated for 48 hrs by SRB assay
HOP-62 = experiment: Anticancer activity against human HOP-62 cells assessed as cell growth inhibition incubated for 48 hrs by SRB assay
HL-60(TB) = experiment: Anticancer activity against human HL-60(TB) cells assessed as cell growth inhibition incubated for 48 hrs by SRB assay
OVCAR-8 = experiment: Anticancer activity against human OVCAR-8 cells assessed as cell growth inhibition incubated for 48 hrs by SRB assay
SK-MEL-5 = experiment: Anticancer activity against human SK-MEL-5 cells assessed as cell growth inhibition incubated for 48 hrs by SRB assay
SK-MEL-2 = experiment: Anticancer activity against human SK-MEL-2 cells assessed as cell growth inhibition incubated for 48 hrs by SRB assay
OVCAR-5 = experiment: Anticancer activity against human OVCAR-5 cells assessed as cell growth inhibition incubated for 48 hrs by SRB assay
SF-268 = experiment: Anticancer activity against human SF-268 cells assessed as cell growth inhibition incubated for 48 hrs by SRB assay
MDA-MB-435 = experiment: Anticancer activity against human MDA-MB-435 cells assessed as cell growth inhibition incubated for 48 hrs by SRB assay
UACC-62 = experiment: Anticancer activity against human UACC-62 cells assessed as cell growth inhibition incubated for 48 hrs by SRB assay
RPMI-8226 = experiment: Anticancer activity against human RPMI-8226 cells assessed as cell growth inhibition incubated for 48 hrs by SRB assay
MDA-MB-468 = experiment: Anticancer activity against human MDA-MB-468 cells assessed as cell growth inhibition incubated for 48 hrs by SRB assay
NCI/ADR-RES = experiment: Anticancer activity against human NCI/ADR-RES cells assessed as cell growth inhibition incubated for 48 hrs by SRB assay
M14 = experiment: Anticancer activity against human M14 cells assessed as cell growth inhibition incubated for 48 hrs by SRB assay
Hs-578T = experiment: Anticancer activity against human Hs-578T cells assessed as cell growth inhibition incubated for 48 hrs by SRB assay
COLO 205 = experiment: Anticancer activity against human COLO 205 cells assessed as cell growth inhibition incubated for 48 hrs by SRB assay
A498 = experiment: Anticancer activity against human A498 cells assessed as cell growth inhibition incubated for 48 hrs by SRB assay
ACHN = experiment: Anticancer activity against human ACHN cells assessed as cell growth inhibition incubated for 48 hrs by SRB assay
NCI-H460 = experiment: Anticancer activity against human NCI-H460 cells assessed as cell growth inhibition incubated for 48 hrs by SRB assay
HCC 2998 = experiment: Anticancer activity against human HCC 2998 cells assessed as cell growth inhibition incubated for 48 hrs by SRB assay
SR = experiment: Anticancer activity against human SR cells assessed as cell growth inhibition incubated for 48 hrs by SRB assay
DU-145 = experiment: Anticancer activity against human DU-145 cells assessed as cell growth inhibition incubated for 48 hrs by SRB assay
SK-MEL-28 = experiment: Anticancer activity against human SK-MEL-28 cells assessed as cell growth inhibition incubated for 48 hrs by SRB assay
T47D = experiment: Anticancer activity against human T47D cells assessed as cell growth inhibition incubated for 48 hrs by SRB assay
SK-OV-3 = experiment: Anticancer activity against human SK-OV-3 cells assessed as cell growth inhibition incubated for 48 hrs by SRB assay
SN12C = experiment: Anticancer activity against human SN12C cells assessed as cell growth inhibition incubated for 48 hrs by SRB assay
PC-3 = experiment: Anticancer activity against human PC-3 cells assessed as cell growth inhibition incubated for 48 hrs by SRB assay
U-251 = experiment: Anticancer activity against human U-251 cells assessed as cell growth inhibition incubated for 48 hrs by SRB assay
CAKI-1 = experiment: Anticancer activity against human CAKI-1 cells assessed as cell growth inhibition incubated for 48 hrs by SRB assay
SW-620 = experiment: Anticancer activity against human SW-620 cells assessed as cell growth inhibition incubated for 48 hrs by SRB assay
EKVX = experiment: Anticancer activity against human EKVX cells assessed as cell growth inhibition incubated for 48 hrs by SRB assay
[1] = read-out: LC50 (the source's name)

NS(=O)(=O)c1ccc(Nc2nc(N/N=C/c3ccccn3)nc(Nc3ccccc3)n2)cc1
GI50 (UACC-257): 2140 nM
LC50 (UACC-257): > 100000 nM
GI50 (CCRF-CEM): 310 nM
CC50 (CCRF-CEM; [1]): > 100000 nM
GI50 (NCI-H226): 1070 nM
CC50 (NCI-H226; [1]): > 100000 nM
GI50 (TK-10): 1190 nM
CC50 (TK-10; [1]): > 100000 nM
GI50 (NCI-H322M): 400 nM
CC50 (NCI-H322M; [1]): > 100000 nM
GI50 (786-0): 1060 nM
CC50 (786-0; [1]): > 100000 nM
GI50 (HOP-92): 800 nM
CC50 (HOP-92; [1]): > 100000 nM
GI50 (MCF7): 1100 nM
LC50 (MCF7): 6800 nM
GI50 (SNB-75): 1320 nM
LC50 (concentration killing 50% of cells) (SNB-75): 5710 nM
GI50 (HOP-62): 550 nM
CC50 (HOP-62; [1]): > 100000 nM
GI50 (HL-60(TB)): 630 nM
CC50 (HL-60(TB); [1]): > 100000 nM
GI50 (OVCAR-8): 440 nM
LC50 (OVCAR-8): > 100000 nM
GI50 (SK-MEL-5): 780 nM
LC50 (SK-MEL-5): 4710 nM
GI50 (SK-MEL-2): 1500 nM
GI50 (OVCAR-5): 1600 nM
CC50 (OVCAR-5; [1]): > 100000 nM
GI50 (SF-268): 460 nM
LC50 (concentration killing 50% of cells) (SF-268): > 100000 nM
GI50 (MDA-MB-435): 910 nM
LC50 (MDA-MB-435): 5930 nM
GI50 (UACC-62): 570 nM
LC50 (UACC-62): 6150 nM
GI50 (RPMI-8226): 2110 nM
LC50 (concentration killing 50% of cells) (RPMI-8226): > 100000 nM
GI50 (MDA-MB-468): 310 nM
CC50 (MDA-MB-468; [1]): > 100000 nM
GI50 (NCI/ADR-RES): 2750 nM
CC50 (NCI/ADR-RES; [1]): > 100000 nM
GI50 (M14): 850 nM
GI50 (Hs-578T): 1880 nM
LC50 (concentration killing 50% of cells) (Hs-578T): > 100000 nM
GI50 (COLO 205): 410 nM
CC50 (COLO 205; [1]): > 100000 nM
GI50 (A498): 1610 nM
CC50 (A498; [1]): 6890 nM
GI50 (ACHN): 1120 nM
GI50 (NCI-H460): 2410 nM
CC50 (NCI-H460; [1]): > 100000 nM
GI50 (HCC 2998): 650 nM
CC50 (HCC 2998; [1]): > 100000 nM
GI50 (SR): 330 nM
CC50 (SR; [1]): > 100000 nM
GI50 (DU-145): 850 nM
LC50 (50% lethal concentration) (DU-145): > 100000 nM
GI50 (SK-MEL-28): 750 nM
CC50 (SK-MEL-28; [1]): 6190 nM
GI50 (T47D): 470 nM
LC50 (T47D): > 100000 nM
GI50 (SK-OV-3): 840 nM
LC50 (SK-OV-3): > 100000 nM
GI50 (SN12C): 1010 nM
LC50 (SN12C): > 100000 nM
GI50 (PC-3): 690 nM
CC50 (PC-3; [1]): > 100000 nM
GI50 (U-251): 510 nM
CC50 (U-251; [1]): > 100000 nM
GI50 (CAKI-1): 610 nM
CC50 (CAKI-1; [1]): > 100000 nM
GI50 (SW-620): 710 nM
CC50 (SW-620; [1]): > 100000 nM
GI50 (EKVX): 710 nM
CC50 (EKVX; [1]): > 100000 nM
